Laboratory results as given in patent EP4790048A1, “S1PR4 REGULATOR COMPOUND FOR AUTOIMMUNE DISEASE TREATMENT AND APPLICATION THEREOF” (Shengyuan Zetong (Shanghai) Pharmaceutical Co., Ltd, priority 2023, dated 2025).

Columns and labels:
[1] = molecular target: T1, hS1P4 (Homo sapiens, UniProt O95977); experiment: Tango β-arrestin recruitment luciferase assay, Tango-hS1P4-CHO; format: cell-based; conditions: β-arrestin recruitment; 20 h drug treatment; top 45 µM, 9 serial 5-fold dilutions; positive control 25 µM BAF-312; read-out: Tango-hS1P4-CHO EC50
T1 construct: expressed in transfected cells; host or cells: CHO
T1 sequence (O95977 1-384): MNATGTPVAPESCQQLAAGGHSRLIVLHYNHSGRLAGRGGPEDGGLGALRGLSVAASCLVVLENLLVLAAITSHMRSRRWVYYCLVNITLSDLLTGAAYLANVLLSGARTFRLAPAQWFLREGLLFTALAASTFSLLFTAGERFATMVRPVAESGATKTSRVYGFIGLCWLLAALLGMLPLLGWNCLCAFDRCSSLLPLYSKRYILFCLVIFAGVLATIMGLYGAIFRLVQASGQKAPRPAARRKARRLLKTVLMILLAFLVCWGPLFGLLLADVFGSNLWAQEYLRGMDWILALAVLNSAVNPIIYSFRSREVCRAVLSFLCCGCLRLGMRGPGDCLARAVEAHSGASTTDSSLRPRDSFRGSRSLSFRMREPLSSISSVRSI
From the text: (§1) The Tango assay detects ligand-dependent GPCR activity through the interaction between β-arrestin and GPCRs. […] The NTEV fragment and the tetracycline transactivator (tTA), an artificial transcription factor, are fused at the C-terminus of the GPCR, while the CTEV fragment is fused to human β-arrestin 2. To enhance the stability of the interaction between GPCR and β-arrestin, a short sequence from the C-terminus of the human arginine vasopressin receptor 2 (V2 tail) is inserted between the GPCR and NTEV. The V2 tail contains multiple GRK phosphorylation sites, which strengthen β-arrestin binding upon phosphorylation. The CTEV fragment carries the stabile point mutation S219P and is truncated at residue 221 to remove the autoinhibitory C-terminal tail. Meanwhile, β-arrestin 2 is truncated to lack the entire C-terminal tail (residues 383-410 deleted). This truncation confers robust stimulus-dependent receptor desensitization, thereby improving detection sensitivity compared with wild-type β-arrestin 2. The UAS reporter construct consists of upstream activating sequence (UAS) elements, a minimal CMV promoter, and a tTA-dependent luciferase reporter gene. Therefore, constructing Tango cells requires the co-transfection of the above three plasmids into host cells. Upon GPCR activation and β-arrestin recruitment, the TEV enzyme at the β-arrestin terminus cleaves tTA from the GPCR C-terminus. The released tTA initiates tTA-dependent luciferase transcription, and compound activity is ultimately determined by measuring luminescence intensity.
(§2) • 1) Tango cell line from was digested from the culture dish respectively. After cell counting, the cells were plated at a density of 10,000 cells per well with […] into a white opaque 96-well plate (add 60 µL D'Hanks to the surrounding wells), and incubated overnight (20 h) in a 5% CO2 incubator at 37°C. The cell density will reach approximately 90% the next day. • 2) After 20 h, 30 µL of serially diluted compound solution was added to each well. The control group was supplemented with 30 µL F12K complete medium. Each group had three replicate wells. • 3) Samples were collected after 20 h of drug treatment.
(§3) (All compounds were tested at a final concentration of 45 µM, with 9 serial dilutions at 5-fold intervals. 1 µM BAF-312 was used as the positive control for S1PR1, and 25 µM BAF-312 was used as the positive control for S1PR4.

[2] = molecular target: T2, hS1P1 (Homo sapiens, UniProt P21453); experiment: Tango β-arrestin recruitment luciferase assay, Tango-hS1P1-CHO; format: cell-based; conditions: β-arrestin recruitment; 20 h drug treatment; top 45 µM, 9 serial 5-fold dilutions; positive control 1 µM BAF-312; read-out: Tango-hS1P1-CHO EC50
T2 construct: expressed in transfected cells; host or cells: CHO
T2 sequence (P21453 whole entry): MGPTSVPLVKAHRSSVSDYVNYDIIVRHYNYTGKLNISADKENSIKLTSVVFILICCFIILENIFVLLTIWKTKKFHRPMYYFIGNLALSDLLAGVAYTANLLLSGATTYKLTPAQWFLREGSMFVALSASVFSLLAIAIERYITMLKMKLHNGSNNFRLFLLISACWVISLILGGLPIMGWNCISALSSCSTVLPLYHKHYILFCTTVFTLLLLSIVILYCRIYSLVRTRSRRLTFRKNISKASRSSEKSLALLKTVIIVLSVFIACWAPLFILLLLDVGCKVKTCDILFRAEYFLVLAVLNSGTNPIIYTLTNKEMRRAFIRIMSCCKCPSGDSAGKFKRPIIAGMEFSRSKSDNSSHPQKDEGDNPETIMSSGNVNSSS
From the text: as §1, §2, §3

SMILES	EC50 [1] [nM]	EC50 [2] [nM]
CCc1cc(/C(C)=N/OCc2ccc(-c3ccoc3)c(C)c2)ccc1CN1CC[C@H](C(=O)O)C1 [Compound 36, (S, E)-1-(2-ethyl-4-(1-(((4-(furan-3-yl)-3-methylbenzyl)oxy)imino)ethyl)benzyl)pyrrolidine-3-carboxylic acid]	1.67	103
C/C(=N\OCc1ccc(C2CCCCC2)c(C(F)(F)F)c1)c1ccc(CN2CCCC(C(=O)O)C2)cc1 (stereo not shown) [Compound 7]	2500	508
CCc1cc(/C(C)=N/OCc2ccc(-c3cnc(F)cn3)cc2F)ccc1CN1CC[C@H](C(=O)O)C1 [Compound 87, (S, E)-1-(2-ethyl-4-(1-(((2-fluoro-4-(5-fluoropyrazin-2-yl)benzyl)oxy)imino)ethyl)benzyl)pyrrolidine-3-carboxylic acid]	17.4 ± 0.39	> 10000
CCc1cc(/C(C)=N/OCc2ccc3c(c2)CCCC3)ccc1CN1CC(C(=O)O)C1 [Compound 23, (E)-1-(2-ethyl-4-(1-(((5,6,7,8-tetrahydronaphthalen-2-yl)methoxy)imino)ethyl)benzyl)azetidine-3-carboxylic acid]	–	560
C/C(=N\OCc1ccc(C2CCCCC2)c(C(F)(F)F)c1)c1ccc(CNC2CCCC(C(=O)O)C2)cc1 (stereo not shown) [Compound 9, (E)-3-((4-((1-((4-cyclohexyl-3-(trifluoromethyl)benzyl)oxy)imino)ethyl)benzyl)amino)cyclohexane-1-carboxylic acid]	2350	455
CCc1cc(/C(C)=N/OCc2ccc3ccccc3c2)ccc1CN1CC(C(=O)O)C1 [Compound 15]	–	807
CCc1cc(/C(C)=N/OCc2ccc(C3CCCCC3)cc2)ccc1CN1CC(C(=O)O)C1 [Compound 3]	2160	578
CCc1cc(/C(C)=N/OCc2ccc(C)c(C(F)(F)F)c2)ccc1CN1CC(C(=O)O)C1 [Compound 14, (E)-1-(2-ethyl-4-(1-((4-methyl-3-(trifluoromethyl)benzyl)oxy)imino)ethyl)azetidine-3-carboxylic acid]	3660	5990
CCc1cc(/C(C)=N/OCc2ccc(-c3ccccc3)c(C)c2)ccc1CN1CCCC(C(=O)O)C1 (stereo not shown) [Compound 33]	–	454
CCc1cc(/C(C)=N/OCc2c(F)cc(-c3ccc(F)nc3)cc2F)ccc1CN1CC[C@H](C(=O)O)C1 [Compound 86, (S, E)-1-(2-ethyl-4-(1-(((2,6-difluoro-4-(6-fluoropyridin-3-yl)benzyl)oxy)imino)ethyl)benzyl)pyrrolidine-3-carboxylic acid]	–	> 10000
CCc1cc(/C(C)=N/OCc2ccc(-c3cnc(F)cn3)c(C)c2)ccc1CN1CCCC(C(=O)O)C1 (stereo not shown) [Compound 92, (E)-1-(2-ethyl-4-(1-(((3-methyl-4-(5-fluoropyrazin-2-yl)-benzyl)oxy)imino)ethyl)benzyl)piperidine-3-carboxylic acid]	> 10000	> 10000
CCc1cc(/C(C)=N/OCc2ccc(-c3cnc(F)nc3)cc2F)ccc1CN1CC[C@H](C(=O)O)C1 [Compound 79, (S, E)-1-(2-ethyl-4-(1-(((2-fluoro-4-(2-fluoropyrimidin-5-yl)benzyl)oxy)imino)ethyl)benzyl)pyrrolidine-3-carboxylic acid]	–	> 10000
C/C(=N\OCc1ccc(C2CCCCC2)cc1)c1ccc(CN2CC(C(=O)O)C2)cc1 [Compound 1]	2970	699

Next, values leading:

EC50 [1] [nM]	EC50 [2] [nM]	SMILES
15.6	644	CCc1cc(/C(C)=N/OCc2ccc(-c3ccncc3)c(C)c2)ccc1CN1CC[C@H](C(=O)O)C1 [Compound 37, (S, E)-1-(2-ethyl-4-(1-(((3-methyl-4-(pyridin-4-yl)benzyl)oxy)imino)ethyl)benzyl)pyrrolidine-3-carboxylic acid]
–	782 ± 24.9	CCc1cc(/C(C)=N/OCc2ccc(-c3ccccc3)cc2)ccc1CN1CC(C(=O)O)C1 [Compound 20, (E)-1-(4-(1-(([1,1'-biphenyl]-4-ylmethoxy)imino)ethyl)-2-ethylbenzyl)azetidine-3-carboxylic acid]
3.79	104	CCc1cc(/C(C)=N/OCc2ccc(-c3ccccc3)c(F)c2)ccc1CN1CC[C@H](C(=O)O)C1 [Compound 35, (S, E)-1-(2-ethyl-4-(1-(((2-fluoro-[1,1'-biphenyl]-4-yl)methoxy)imino)ethyl)benzyl)pyrrolidine-3-carboxylic acid]
42.7 ± 2.28	> 10000	CCc1cc(/C(C)=N/OCc2ccc(-c3cncnc3)c(C)c2)ccc1CN1CCC(C(=O)O)CC1 [Compound 82, (E)-1-(2-ethyl-4-(1-(((3-methyl-4-(pyrimidin-5-yl)benzyl)oxy)imino)ethyl)benzyl)piperidine-4-carboxylic acid]
–	> 10000	CCc1cc(/C(C)=N/OCc2ccc(-c3cnn(C)c3)c(C)c2)ccc1CN1CC[C@H](C(=O)O)C1 [Compound 40]
269	> 10000	CCc1cc(/C(C)=N/OCc2ccc(-c3cnn(C)c3)cc2)ccc1CN1CC[C@H](C(=O)O)C1 [Compound 55]
2.4	86.9	CCc1cc(/C(C)=N/OCc2ccc(-c3ccc(F)cc3)c(C)c2)ccc1CN1CC[C@H](C(=O)O)C1 [Compound 34, (S, E)-1-(2-ethyl-4-(1-(((4'-fluoro-2-methyl-[1,1'-biphenyl]-4-yl)methoxy)imino)ethyl)benzyl)pyrrolidine-3-carboxylic acid]
–	> 10000	CCc1cc(/C(C)=N/OCc2ccc(-c3cncnc3)cc2)ccc1CN1CC[C@H](C(=O)O)C1 [Compound 70, (S, E)-1-(2-ethyl-4-(1-(((4-(pyrimidin-5-yl)benzyl)oxy)imino)ethyl)benzyl)pyrrolidine-3-carboxylic acid]
–	> 10000	CCc1cc(/C(C)=N/OCc2ccc(-c3ccns3)cc2)ccc1CN1CC[C@H](C(=O)O)C1 [Compound 75]
–	> 10000	CCc1cc(/C(C)=N/OCc2ccc(-c3ccc(F)nc3)nc2)ccc1CN1CC[C@H](C(=O)O)C1 [Compound 66, (S, E)-1-(2-ethyl-4-(1-(((6'-fluoro-[2,3'-bipyridin]-5-yl)methoxy)imino)ethyl)benzyl)pyrrolidine-3-carboxylic acid]
–	> 10000	CCc1cc(/C(C)=N/OCc2ccc(-c3ccc(F)nc3)cc2F)ccc1CN1CC[C@H](C(=O)O)C1 [Compound 65]
